Results: ChEMBL document CHEMBL5518206, “Hit-to-Lead Identification and Validation of a Triaromatic Pleuromutilin Antibiotic Candidate” (J Med Chem, 2024)
In brackets after ≈: the same amount, converted by molar mass. Activity calls are given as the source filed them. The rule behind the calls is not given here.

What was measured:
Enterococcus faecalis = assay: Antibacterial activity against Enterococcus faecalis assessed as inhibition of visible growth incubated for 20 to 24 hrs by microbroth serial dilution assay; type: functional; conditions: time 20-24 hrs, read-out: MIC100
Cytochrome P450 3A4 [1] = target: T1, Cytochrome P450 3A4 (Homo sapiens, UniProt P08684); assay: Inhibition of human CYP3A4 incubated for 60 mins by red fluorescent-probe-based microsomal assay; type: ADME
hERG (KCNH2) = hERG (KCNH2) (Homo sapiens, UniProt Q12809); assay: Inhibition of hERG expressed in HEK293 cells assessed as tail current at 60 uM measured after 8 mins by automated whole-cell Qpatch Clamp assay relative to control; conditions: HEK293 cells that express hERG
Staphylococcus aureus [2] = assay: Antibacterial activity against multi drug-resistant Staphylococcus aureus USA300 FPR3757 assessed as reduction in bacterial growth at 4 times of MIC concentration measured after 6 hrs by time-kill assay; type: functional
[3] = Tmax in pig plasma at 10 mg/kg, po measured upto 240 mins by LC-MS/MS analysis; type: ADME, organism-based, Sus scrofa
Streptococcus pneumoniae = assay: Antibacterial activity against Streptococcus pneumoniae assessed as inhibition of visible growth incubated for 20 to 24 hrs by microbroth serial dilution assay; type: functional; conditions: time 20-24 hrs, read-out: MIC100
[4] = Solubility of the compound in Dulbecco's PBS at 20 degree C measured after 24 hrs
[5] = Elimination rate constant in pig urine at 10 mg/kg, po measured upto 240 mins by LC-MS/MS analysis; type: ADME, organism-based, Sus scrofa
[6] = Apparent permeability from basolateral to apical side in human Caco-2 cells at 280 uM measured upto 120 mins by LC-MS analysis; type: ADME, cell-based
[7] = Half life in NMRI female mouse at 60 mg/kg, sc by HPLC analysis; type: ADME, organism-based; conditions: in vivo
Staphylococcus aureus [8] = assay: Antibacterial activity against multi drug-resistant Staphylococcus aureus USA300 FPR3757 assessed as inhibition of visible growth incubated for 20 to 24 hrs by microbroth serial dilution assay; type: functional; conditions: time 20-24 hrs, read-out: MIC100
Staphylococcus aureus [9] = assay: Antibacterial activity against multi drug-resistant Staphylococcus aureus USA300 FPR3757 assessed as reduction in bacterial growth of original inoculum at 4 times of MIC concentration measured after 24 hrs by time-kill assay; type: functional
MDCK-MDR1 = assay: Cytotoxicity against MDCKII-MDR1 cells assessed as cell viability at 100 uM measured by MTT assay; type: toxicity, cell-based, Canis lupus familiaris; conditions: dog, mdck-mdr1, 100 µM
in vitro [10] = conditions: mouse, liver microsomes
[11] = Bioavailability in NMRI female mouse at 20 mg/kg, sc by HPLC analysis; type: ADME, organism-based; conditions: in vivo
in vitro [12] = conditions: human, liver microsomes
[13] = Efflux ratio of apparent permeability from basolateral to apical side over apical to basolateral side in human Caco-2 cells at 100 uM and measured after 120 mins by LC-MS analysis; type: ADME, cell-based
[14] = Cmax in NMRI female mouse at 20 mg/kg, sc by HPLC analysis; type: ADME, organism-based; conditions: in vivo
[15] = target: Voltage-gated inwardly rectifying potassium channel KCNH2 (Homo sapiens, UniProt Q12809); assay: Inhibition of hERG expressed in HEK293 cells assessed as tail current measured after 8 mins by automated whole-cell Qpatch Clamp assay
[16] = Clearance in pig plasma at 3 mg/kg, iv measured upto 240 mins by LC-MS/MS analysis; type: ADME, organism-based, Sus scrofa
[17] = AUC (0 to infinity) in NMRI female mouse at 20 mg/kg, sc by HPLC analysis; type: ADME, organism-based; conditions: in vivo
[18] = Plasma concentration in pig at 10 mg/kg, po measured upto 240 mins by LC-MS/MS analysis; type: ADME, organism-based, Sus scrofa
[19] = Apparent permeability from basolateral to apical side in human Caco-2 cells at 100 uM measured upto 120 mins by LC-MS analysis; type: ADME, cell-based
Staphylococcus aureus [20] = assay: Antibacterial activity against multi drug-resistant Staphylococcus aureus USA300 FPR3757 assessed as reduction in bacterial growth at 1 times of MIC concentration measured at first 12 hrs by time-kill assay; type: functional
Staphylococcus aureus [21] = assay: Antibacterial activity against multi drug-resistant Staphylococcus aureus USA300 FPR3757 assessed as reduction in bacterial growth of original inoculum at 4 times of MIC concentration measured after 24 hrs by time-kill assay relative to control; type: functional
[22] = Cmax in NMRI female mouse at 60 mg/kg, sc by HPLC analysis; type: ADME, organism-based; conditions: in vivo
Enterococcus faecium [23] = assay: Antibacterial activity against Vancomycin-resistant Enterococcus faecium assessed as inhibition of visible growth incubated for 20 to 24 hrs by microbroth serial dilution assay; type: functional; conditions: time 20-24 hrs, read-out: MIC100
in vitro [24] = conditions: mouse, liver microsomes; remark: listed apart in the source
[25] = Plasma protein binding in human at 5 to 15 uM incubated for 5 hrs by LC-MS analysis; type: ADME, cell-free; conditions: dose 5-15 µM, read-out: PPB (converted)
[26] = Efflux ratio of apparent permeability from basolateral to apical side over apical to basolateral side in human Caco-2 cells at 280 uM and measured after 120 mins by LC-MS analysis; type: ADME, cell-based
[27] = Apparent permeability from apical to basolateral side in human Caco-2 cells at 280 uM measured upto 120 mins by LC-MS analysis; type: ADME, cell-based
[28] = Clearance in NMRI female mouse at 20 mg/kg, sc by HPLC analysis; type: ADME, organism-based; conditions: in vivo
[29] = Apparent permeability from apical to basolateral side in human Caco-2 cells at 100 uM measured upto 120 mins by LC-MS analysis; type: ADME, cell-based
Enterococcus faecium [30] = assay: Antibacterial activity against Linezolid/Ampicillin/ciprofloxacin/Vancomycin-resistant Enterococcus faecium assessed as inhibition of visible growth incubated for 20 to 24 hrs by microbroth serial dilution assay; type: functional; conditions: time 20-24 hrs, read-out: MIC100
in vitro [31] = conditions: pig, liver microsomes
[32] = Inhibition of P-gp efflux in MDCKII-MDR1 cells using calcein-AM as substrate assessed as intracellular calcein fluorescence preincubated for 15 mins followed by substrate addition and measured by fluorescence based assay; type: cell-based; conditions: Canis lupus familiaris
in vitro [33] = conditions: pig, liver microsomes; remark: listed apart in the source
in vitro [34] = conditions: human, liver microsomes; remark: listed apart in the source
Cytochrome P450 3A4 [35] = target: T1, Cytochrome P450 3A4; assay: Inhibition of CYP3A4 in pooled human liver microsomes using midazolam as substrate; type: ADME, Microsome
Staphylococcus aureus [36] = assay: (§1) Induction of resistant development in lefamulin 5 passages resistance developed Staphylococcus aureus USA300 FPR3757 assessed as fold increase in MIC at sub-MIC concentration measured after 25 passages with conjugate by serial passage assay; type: functional
[37] = Efflux ratio of apparent permeability from basolateral to apical side over apical to basolateral side in human Caco-2 cells at 10 uM; type: ADME, cell-based
Escherichia coli = assay: Antibacterial activity against Escherichia coli assessed as inhibition of visible growth incubated for 20 to 24 hrs by microbroth serial dilution assay; type: functional, organism-based; conditions: time 20-24 hrs
Staphylococcus aureus [38] = assay: as §1, with “-(6-(6-(Piperazin-1-y1)-9H-purin-9-y)methyl)pyridin-3-y1)-1H-1,2,3-triazol-1-yl)-22-deoxypleuromutilin-16” for “lefamulin 5”, “5” for “25”; type: functional

T1 sequence (P08684 whole entry): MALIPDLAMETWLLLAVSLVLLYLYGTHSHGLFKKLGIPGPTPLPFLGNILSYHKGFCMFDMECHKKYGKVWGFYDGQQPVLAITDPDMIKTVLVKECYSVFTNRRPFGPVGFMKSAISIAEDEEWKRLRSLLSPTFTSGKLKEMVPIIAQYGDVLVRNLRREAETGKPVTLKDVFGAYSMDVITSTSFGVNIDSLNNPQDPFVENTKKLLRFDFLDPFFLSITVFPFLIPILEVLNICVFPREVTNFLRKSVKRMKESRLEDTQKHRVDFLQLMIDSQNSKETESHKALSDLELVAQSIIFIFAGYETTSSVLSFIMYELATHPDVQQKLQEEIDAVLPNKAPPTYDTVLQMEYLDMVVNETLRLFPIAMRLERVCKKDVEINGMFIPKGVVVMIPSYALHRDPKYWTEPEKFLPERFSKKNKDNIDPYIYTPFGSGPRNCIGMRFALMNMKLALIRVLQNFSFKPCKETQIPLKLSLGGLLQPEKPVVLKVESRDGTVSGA
Voltage-gated inwardly rectifying potassium channel KCNH2, sequence (Q12809 whole entry): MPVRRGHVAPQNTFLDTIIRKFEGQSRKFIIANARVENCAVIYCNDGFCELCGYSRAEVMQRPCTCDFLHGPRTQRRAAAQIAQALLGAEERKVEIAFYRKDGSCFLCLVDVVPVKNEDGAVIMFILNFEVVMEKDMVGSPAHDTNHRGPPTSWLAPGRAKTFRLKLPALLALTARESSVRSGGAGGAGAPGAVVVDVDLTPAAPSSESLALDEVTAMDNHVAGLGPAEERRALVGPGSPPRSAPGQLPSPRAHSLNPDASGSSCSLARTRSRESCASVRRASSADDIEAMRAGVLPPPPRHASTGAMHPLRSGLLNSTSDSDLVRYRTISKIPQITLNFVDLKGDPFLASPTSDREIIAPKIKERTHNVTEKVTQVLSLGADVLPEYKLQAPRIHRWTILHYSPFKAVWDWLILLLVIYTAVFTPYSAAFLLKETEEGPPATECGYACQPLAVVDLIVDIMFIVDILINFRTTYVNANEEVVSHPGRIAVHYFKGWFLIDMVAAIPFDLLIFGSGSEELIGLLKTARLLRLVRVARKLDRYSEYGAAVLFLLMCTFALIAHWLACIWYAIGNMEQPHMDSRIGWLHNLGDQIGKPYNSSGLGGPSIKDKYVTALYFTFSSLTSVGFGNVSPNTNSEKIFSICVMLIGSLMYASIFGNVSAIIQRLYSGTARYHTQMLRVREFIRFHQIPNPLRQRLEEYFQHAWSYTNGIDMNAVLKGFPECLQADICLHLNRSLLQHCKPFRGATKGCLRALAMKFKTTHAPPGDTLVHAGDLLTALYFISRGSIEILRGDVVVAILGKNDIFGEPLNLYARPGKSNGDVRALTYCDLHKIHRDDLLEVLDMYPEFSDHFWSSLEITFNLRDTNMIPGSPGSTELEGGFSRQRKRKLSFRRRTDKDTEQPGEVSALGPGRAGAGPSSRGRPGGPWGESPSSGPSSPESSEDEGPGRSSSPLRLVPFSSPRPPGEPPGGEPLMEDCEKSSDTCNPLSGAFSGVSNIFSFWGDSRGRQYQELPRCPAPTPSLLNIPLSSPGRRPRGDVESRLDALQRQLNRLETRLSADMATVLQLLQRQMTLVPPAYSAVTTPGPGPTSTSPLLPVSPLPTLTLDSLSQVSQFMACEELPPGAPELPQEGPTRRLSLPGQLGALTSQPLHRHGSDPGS
hERG (KCNH2), sequence (Q12809 whole entry): as above

Structure (SMILES) | MIC (Enterococcus faecalis) [µg/mL] | IC50 (Cytochrome P450 3A4 [1]) [µM] | inhibition at 8 min, 60 µM (hERG (KCNH2)) [%] | Activity (Staphylococcus aureus [2]) [log10CFU/ml] | MIC (Streptococcus pneumoniae) [µg/mL] | solubility at 24 h [4] [µM] | Papp B→A at 2 h, 280 µM [6] [×10⁻⁶ cm/s] | MIC (Staphylococcus aureus [8]) [µg/mL] | Activity (Staphylococcus aureus [9]) [log10CFU/ml] | Activity (MDCK-MDR1) | half-life at 0.5 h, 1 µM (in vitro [10]) [min] | half-life at 0.5 h, 1 µM (in vitro [12]) [min] | efflux ratio at 2 h, 100 µM [13] | IC50 [15] [µM] | Papp B→A at 2 h, 100 µM [19] [×10⁻⁶ cm/s] | Activity (Staphylococcus aureus [20]) [log10CFU/ml] | inhibition (INH) (Staphylococcus aureus [21]) [%] | MIC (Enterococcus faecium [23]) [µg/mL] | CLint scaled at 0.5 h, 1 µM (in vitro [24]) [mL/min/kg] | fraction unbound at 5 h, up to 15 µM [25] | further results
C=C[C@]1(C)C[C@@H](OC(=O)Cn2cc(-c3ccc(Cn4cnc5c(N6CCNCC6)ncnc54)nc3)nn2)[C@]2(C)[C@H](C)CC[C@]3(CCC(=O)[C@H]32)[C@@H](C)[C@@H]1O | 0.12 (≈ 0.166 µM) | 0.41 | 27.4 | ~3 | 0.03 (≈ 0.0415 µM) | 114 (≈ 82.4 µg/mL) | 5.34 | 0.12 (≈ 0.166 µM) | 3 | Non-Toxic | 5.9 | 3.7 | 48 | > 200 | 23 | 2 | 99.9 | 0.03 (≈ 0.0415 µM) | 929 | 0.27 | Tmax [3]: 15 min; k el at 4 h [5]: 8.67e-05 s⁻¹; half-life [7]: 114 min; bioavailability [11]: 52%; Cmax [14]: 1180 ng/mL; clearance [16]: 84.7 mL/min/kg; AUC [17]: 222 µg/mL/min; concentration at 4 h [18]: 49.7 ng/mL; Cmax [22]: 2560 ng/mL; efflux ratio at 2 h, 280 µM [26]: 2.5; Papp A→B at 2 h, 280 µM [27]: 2.12 ×10⁻⁶ cm/s; CL/F [28]: 90.3 mL/min/kg; Papp A→B at 2 h, 100 µM [29]: 0.48 ×10⁻⁶ cm/s; MIC (Enterococcus faecium [30]): 0.12 µg/mL (≈ 0.166 µM); CLint scaled at 0.5 h, 1 µM (in vitro [31]): 4200 mL/min/kg; IC50 [32]: 47 µM; half-life at 0.5 h, 1 µM (in vitro [33]): 1.3 min; CLint scaled at 0.5 h, 1 µM (in vitro [34]): 1710 mL/min/kg
C=C[C@]1(C)C[C@@H](OC(=O)CS[C@@H]2CC[C@@H](N)C[C@H]2O)[C@]2(C)[C@H](C)CC[C@]3(CCC(=O)[C@H]32)[C@@H](C)[C@@H]1O [LEFAMULIN] | 0.06 (≈ 0.118 µM) | 0.75 | 32.8 | 2.5 | 0.25 (≈ 0.492 µM) | 1920 (≈ 973 µg/mL) | 12.5 | 0.12 (≈ 0.236 µM) | 3 | Non-Toxic | 11.5 | 4.3 | 40.8 | 126 | 25.7 | 2 | 99.9 | 0.12 (≈ 0.236 µM) | 478 | 0.34 | Ki (Cytochrome P450 3A4 [35]): 0.86 µM; fold change (FC) (Staphylococcus aureus [36]): 64; efflux ratio at 2 h, 280 µM [26]: 3.9; Papp A→B at 2 h, 280 µM [27]: 3.19 ×10⁻⁶ cm/s; Papp A→B at 2 h, 100 µM [29]: 0.63 ×10⁻⁶ cm/s; efflux ratio at 10 µM [37]: 68; MIC (Enterococcus faecium [30]): 0.12 µg/mL (≈ 0.236 µM); CLint scaled at 0.5 h, 1 µM (in vitro [31]): 359 mL/min/kg; IC50 [32]: 43 µM; Activity (Escherichia coli): inactive; half-life at 0.5 h, 1 µM (in vitro [33]): 15.3 min; CLint scaled at 0.5 h, 1 µM (in vitro [34]): 1460 mL/min/kg; fold change (FC) (Staphylococcus aureus [38]): 8
